Results reported in US8822699B2, “Heterocyclic compound and use thereof” (Takeda Pharmaceutical Company Limited, priority 2010, dated 2014).
Where two headings read alike, the source gives them in different places.

Experiments:
[1] = system: Aβ42 (soluble Aβ in hippocampi); assay: Aβ42 in hippocampi of mice after oral administration (Aβ ELISA); type: in vivo; conditions: C57BL/6J mice, 10 mg/kg orally, hippocampi isolated 3 hours after administration, soluble Aβ42 by two-site sandwich ELISA; for inhibition at 10 mg/kg: Mus musculus, po, 3 h, read-out: Aβ42 production inhibitory activity (% inhibition); for Aβ42 production inhibitory activity (% inhibition): 10 mg/kg
Experimental: C57BL/6J mice (7-10 weeks old) were purchased from CLEA Japan Inc. Mice were housed in groups and kept on a 12 h-light; 12 h-dark schedule. All mice were given ad libitum access to food and water.
Each test compound was reconstituted in solubilization buffer ([DMSO (Wako)]: [10% Cremophor (Nakarai)+30% polyethylene glycol 400 (Wako)+60% 2 mol/L Citrate buffer (Wako)]=1:9) and orally administrated at 10 mg/kg.
Hippocampi was isolated from animals, 3 hours after test compounds were orally administrated. Hippocampi were homogenized in ice-cold Tris-extraction buffer (50 mmol/L Tris-HCl, pH 7.2, 200 mmol/L sodium chloride, 2% protease-free bovine serum albumin, and 0.01% sodium merthiolate) containing protease inhibitor cocktails (Roche, Switzerland). After centrifugation at 15,000 rpm for 15 minutes, the supernatants were subjected to two-site sandwich ELISA to measure amount of soluble Aβ. Aβ42 was quantitated by two-site sandwich ELISA using BNT77, which recognizes Aβ11-28, as a capture antibody and BC05-HRP as a detector antibody, respectively.

[2] = system: Aβ42 production in primary nerve cells; assay: Measurement of amyloid β production inhibition rate using primary nerve cell (Aβ42 sandwich ELISA); type: cell-based; conditions: primary nerve cells from cerebral cortex of SD rat fetus, cultured 3 days with compound, culture supernatant, sandwich ELISA for Aβ42, read-out: Aβ42 production inhibitory activity IC50
Experimental: Measurement of Amyloid β Production Inhibition Rate Using Primary Nerve Cell
The primary nerve cells were collected from the cerebral cortex of rat fetus (CLEA Japan, Inc.: SD rat, fetal life 17 days of age), and suspended in a neurobasal medium containing B27 supplement, L-glutamine, penicillin-streptomycin (manufactured by Invitrogen) at 500,000 cells/mL. Then, the suspension was seeded in poly L-lysine-coated 96 well plate (manufactured by SUMITOMO BAKELITE) by 100 μL, and cultured at 37° C., 5% CO2 for 7 days. The medium was completely removed, and a new neurobasal medium was added at 75 μL/well. Thereto was added (75 μL/well) a neurobasal medium supplemented with a 2-fold measurement concentration of an evaluation target compound, and the mixture was cultured for 3 days. The culture supernatant was collected from each well, diluted as appropriate, applied to sandwich ELISA between BNT77 antibody-BA27 antibody (for Aβ40) and sandwich ELISA between BNT77 antibody-3005 antibody (for Aβ42), and the amounts of Aβ40 and Aβ42 were measured.
The amyloid β production inhibition rate (%) of the compound was calculated by the following formula. (1−(amyloid β production amount with addition of compound)/(amyloid β production amount without addition of compound))×100
The amyloid β production 50% inhibitory rate (IC50 value) was calculated using the statistical analysis software (SAS Preclinical Package) as the concentration of the compound showing 50% inhibition when the amyloid β production amount without addition of the compound is 100%. In addition, a new neurobasal medium was added (75 μL/well) to the cells after collection of the culture supernatant, and the cells were left standing for about 30 min to reach room temperature. Cell-Titer Glo Luminescent Cell Viability Assay (manufactured by Promega) was added at 75 μL/well, and the plate was shaken for 2 min and reacted for about 10 min.

| IC50 ([2]; Rattus norvegicus, 72 h) [nM] | IC50 [2] [nM] | Compound | inhibition at 10 mg/kg [1] [%] | Aβ42 production inhibitory activity (% inhibition) [1] [%] |
| --- | --- | --- | --- | --- |
| 27 |  | COc1nc(-c2nnc3n2CCCC3(Oc2ccc(Cl)c(F)c2)C(C)(C)O)ccc1-n1cnc(C)c1 (stereo not drawn) [Example 1, 2-{8-(4-chloro-3-fluorophenoxy)-3-[6-methoxy-5-(4-methyl-1H-imidazol-1-yl)pyridin-2-yl]-5,6,7,8-tetrahydro[1,2,4]triazolo[4,3-a]pyridin-8-yl}propan-2-ol] | 40 |  |
|  | 19 | COc1nc(-c2nnc3n2CCCC3(Oc2ccc(F)c(C(F)(F)F)c2)C(C)(C)O)ccc1-n1cnc(C)c1 (stereo not drawn) [Example 2, 2-{8-[4-fluoro-3-(trifluoromethyl)phenoxy]-3-[6-methoxy-5-(4-methyl-1H-imidazol-1-yl)pyridin-2-yl]-5,6,7,8-tetrahydro[1,2,4]triazolo[4,3-a]pyridin-8-yl}propan-2-ol] |  | 48 |
|  | 5 | COc1cc(-c2nnc3n2CCCC3(CC2CC2)c2ccc(F)c(F)c2)ccc1-c1cnc(C)o1 (stereo not drawn) [Example 21, optically active 8-(cyclopropylmethyl)-8-(3,4-difluorophenyl)-3-[3-methoxy-4-(2-methyl-1,3-oxazol-5-yl)phenyl]-5,6,7,8-tetrahydro[1,2,4]triazolo[4,3-a]pyridine] | 39 |  |
| 59 |  | COc1cc(-c2nnc3n2CCCC3(Oc2ccc(F)c(F)c2)C(C)(C)O)ccc1-c1cnc(C)o1 (stereo not drawn) [Example 92, 2-{8-(3,4-difluorophenoxy)-3-[3-methoxy-4-(2-methyl-1,3-oxazol-5-yl)phenyl]-5,6,7,8-tetrahydro[1,2,4]triazolo[4,3-a]pyridin-8-yl}propan-2-ol] |  | 32 |
| 20 |  | COc1cc(-c2nnc3n2CCCC3(Oc2cc(F)c(F)c(F)c2)C(C)(C)O)ccc1-c1cnc(C)o1 (stereo not drawn) [Example 99, 2-{3-[3-methoxy-4-(2-methyl-1,3-oxazol-5-yl)phenyl]-8-(3,4,5-trifluorophenoxy)-5,6,7,8-tetrahydro[1,2,4]triazolo[4,3-a]pyridin-8-yl}propan-2-ol] | 34 |  |
| 41 |  | COc1cc(-c2nnc3n2CCCC3(Oc2cccc(C(F)(F)F)c2)C(C)(C)O)ccc1-c1cnc(C)o1 (stereo not drawn) [Example 103, 2-{3-[3-methoxy-4-(2-methyl-1,3-oxazol-5-yl)phenyl]-8-[3-(trifluoromethyl)phenoxy]-5,6,7,8-tetrahydro[1,2,4]triazolo[4,3-a]pyridin-8-yl}propan-2-ol] | 42 |  |
|  | 41 | COc1cc(-c2nnc3n2CCCC3(Oc2ccc(C(F)(F)F)cc2)C(C)(C)O)ccc1-c1cnc(C)o1 (stereo not drawn) [Example 104, 2-{3-[3-methoxy-4-(2-methyl-1,3-oxazol-5-yl)phenyl]-8-[4-(trifluoromethyl)phenoxy]-5,6,7,8-tetrahydro[1,2,4]triazolo[4,3-a]pyridin-8-yl}propan-2-ol] |  | 36 |
|  | 10 | COc1cc(-c2nnc3n2CCCC3(Oc2ccc(Cl)c(F)c2)C(C)(C)O)ccc1-c1cnc(C)o1 (stereo not drawn) [Example 111, 2-{8-(4-chloro-3-fluorophenoxy)-3-[3-methoxy-4-(2-methyl-1,3-oxazol-5-yl)phenyl]-5,6,7,8-tetrahydro[1,2,4]triazolo[4,3-a]pyridin-8-yl}propan-2-ol] | 46 |  |
| 4 |  | CCC(O)(CC)C1(Oc2ccc(Cl)c(F)c2)CCCn2c(-c3ccc(-c4cnc(C)o4)c(OC)c3)nnc21 (stereo not drawn) [Example 120, 3-{8-(4-chloro-3-fluorophenoxy)-3-[3-methoxy-4-(2-methyl-1,3-oxazol-5-yl)phenyl]-5,6,7,8-tetrahydro[1,2,4]triazolo-[4,3-a]pyridin-8-yl}pentan-3-ol] | 21 |  |
| 19 |  | COc1cc(-c2nnc3n2CCC[C@]3(Oc2cc(F)c(F)c(F)c2)C(C)(C)O)ccc1-c1cnc(C)o1 [Example 122, 2-{(8R)-3-[3-methoxy-4-(2-methyl-1,3-oxazol-5-yl)phenyl]-8-(3,4,5-trifluorophenoxy)-5,6,7,8-tetrahydro[1,2,4]triazolo[4,3-a]pyridin-8-yl}propan-2-ol] | 54 |  |
|  | 68 | COc1cc(-c2nnc3n2CCCC3(Oc2ccc(F)c(F)c2)C(C)(C)O)ccc1-c1cnc(C)o1 (stereo not drawn) [Example 124, 2-{8-(3,4-difluorophenoxy)-3-[3-methoxy-4-(2-methyl-1,3-oxazol-5-yl)phenyl]-5,6,7,8-tetrahydro[1,2,4]triazolo[4,3-a]pyridin-8-yl}propan-2-ol] | 41 |  |
| 44 |  | COc1cc(-c2nnc3n2CCCC3(COc2ccc(Cl)cc2)C(C)(C)O)ccc1-c1cnc(C)o1 (stereo not drawn) [Example 127, 2-{8-[(4-chlorophenoxy)methyl]-3-[3-methoxy-4-(2-methyl-1,3-oxazol-5-yl)phenyl]-5,6,7,8-tetrahydro[1,2,4]triazolo[4,3-a]pyridin-8-yl}propan-2-ol] | 21 |  |
|  | 24 | COc1cc(-c2nnc3n2CCCC3(Oc2cccc(C(F)(F)F)c2)C(C)(C)O)ccc1-c1cnc(C)o1 (stereo not drawn) [Example 130, 2-{3-[3-methoxy-4-(2-methyl-1,3-oxazol-5-yl)phenyl]-8-[3-(trifluoromethyl)phenoxy]-5,6,7,8-tetrahydro[1,2,4]triazolo[4,3-a]pyridin-8-yl}propan-2-ol] |  | 59 |
|  | 19 | COc1cc(-c2nnc3n2CCCC3(Oc2ccc(C(F)(F)F)cc2)C(C)(C)O)ccc1-c1cnc(C)o1 (stereo not drawn) [Example 132, 2-{3-[3-methoxy-4-(2-methyl-1,3-oxazol-5-yl)phenyl]-8-[4-(trifluoromethyl)phenoxy]-5,6,7,8-tetrahydro[1,2,4]triazolo[4,3-a]pyridin-8-yl}propan-2-ol] |  | 58 |
| 58 |  | COc1cc(-c2nnc3n2CCCC3(Nc2cc(F)c(F)c(F)c2)C(C)(C)O)ccc1-c1cnc(C)o1 (stereo not drawn) [Example 181, 2-{3-[3-methoxy-4-(2-methyl-1,3-oxazol-5-yl)phenyl]-8-[(3,4,5-trifluorophenyl)amino]-5,6,7,8-tetrahydro[1,2,4]triazolo[4,3-a]pyridin-8-yl}propan-2-ol] |  |  |
|  | 29 | COc1nc(-c2nnc3n2CCC[C@]3(Oc2cc(F)c(F)c(F)c2)C(C)(C)O)ccc1-n1cnc(C)c1 [Example 187, 2-{(8R)-3-[6-methoxy-5-(4-methyl-1H-imidazol-1-yl)pyridin-2-yl]-8-(3,4,5-trifluorophenoxy)-5,6,7,8-tetrahydro[1,2,4]triazolo[4,3-a]pyridin-8-yl}propan-2-ol 1(+)-mandelate] |  |  |
|  | 8 | COc1cc(-c2nnn3c2CCCC3(Oc2cc(F)c(F)c(F)c2)C(C)(C)O)ccc1-c1cnc(C)o1 (stereo not drawn) [Example 191, optically active 2-{3-[3-methoxy-4-(2-methyl-1,3-oxazol-5-yl)phenyl]-7-(3,4,5-trifluorophenoxy)-4,5,6,7-tetrahydro[1,2,3]triazolo[1,5-a]pyridin-7-yl}propan-2-ol] |  |  |
|  | 33 | COc1nc(-c2nnc3n2CCC[C@]3(Oc2cc(F)c(F)c(F)c2)C(C)(C)O)ccc1-n1cnc(C)c1 [Example 194, 2-{(8R)-3-[6-methoxy-5-(4-methyl-1H-imidazol-1-yl)pyridin-2-yl]-8-(3,4,5-trifluorophenoxy)-5,6,7,8-tetrahydro[1,2,4]triazolo[4,3-a]pyridin-8-yl}propan-2-ol 0.67 phosphate] |  |  |
|  | 30 | COc1nc(-c2nnc3n2CCC[C@]3(Oc2cc(F)c(F)c(F)c2)C(C)(C)O)ccc1-n1cnc(C)c1 [Example 197, 2-{(8R)-3-[6-methoxy-5-(4-methyl-1H-imidazol-1-yl)pyridin-2-yl]-8-(3,4,5-trifluorophenoxy)-5,6,7,8-tetrahydro[1,2,4]triazolo[4,3-a]pyridin-8-yl}propan-2-ol monogentisate] |  |  |
